Measured values published in ChEMBL document CHEMBL5107958, “Phosphoramidate Prodrugs Continue to Deliver, The Journey of Remdesivir (GS-5734) from RSV to SARS-CoV-2” (ACS Med Chem Lett, 2022).

How the values were obtained:
[1] = test system: Hepatitis C virus; assay: Antiviral activity against HCV assessed as reduction in viral replication by measuring parent nucleoside compound; assay type: functional, organism-based, Hepacivirus hominis
[2] = test system: Hepatitis C virus; assay: Antiviral activity against HCV assessed as reduction in viral replication by measuring monophosphate prodrug metabolite; assay type: functional, organism-based, Hepacivirus hominis
[3] = AUC (0 to infinity) in cynomolgus monkey at 5 mg/kg, po measured for 0.25 to 4 hrs post-administration; assay type: ADME, organism-based, Macaca fascicularis; set-up: time upper 4 hrs, dose 5 mg/kg, time lower 0.25 hrs, route po; settings: in vivo
[4] = Prodrug conversion in cynomolgus monkey assessed as AUC (0 to last) of parent nucleoside compound at 5 mg/kg, po measured for 0.25 to 4 hrs post-administration; assay type: ADME, organism-based, Macaca fascicularis; set-up: time lower 0.25 hrs, dose 5 mg/kg, time upper 4 hrs, route po; settings: in vivo
[5] = AUC (0 to infinity) in dog at 5 mg/kg, po via gavage measured for 0.25 to 24 hrs post-administration; assay type: ADME, organism-based, Canis lupus familiaris; set-up: dose 5 mg/kg, time upper 24 hrs, time lower 0.25 hrs, route po; settings: in vivo
[6] = Prodrug conversion in dog assessed as AUC (0 to last) of parent nucleoside compound at 5 mg/kg, po via gavage measured for 0.25 to 24 hrs post-administration; assay type: ADME, organism-based, Canis lupus familiaris; set-up: time upper 24 hrs, time lower 0.25 hrs, dose 5 mg/kg, route po; settings: in vivo
[7] = Half life in Beagle dog at 0.5 mg/kg, iv measured for 0.08 to 24 hrs post-dose; assay type: ADME, organism-based, Canis lupus familiaris; settings: in vivo, time 0.08-24 hrs
[8] = Volume of distribution at steady state in Beagle dog at 0.5 mg/kg, iv measured for 0.08 to 24 hrs post-dose; assay type: ADME, organism-based, Canis lupus familiaris; settings: in vivo, time 0.08-24 hrs, read-out: Vdss
[9] = AUC (0 to infinity) in Beagle dog at 0.5 mg/kg, iv measured for 0.08 to 24 hrs post-dose; assay type: ADME, organism-based, Canis lupus familiaris; set-up: dose 0.5 mg/kg, time upper 24 hrs, time lower 0.08 hrs, route iv; settings: in vivo
[10] = AUC (0 to infinity) in Beagle dog at 3 mg/kg, po via gavage measured for 0.08 to 24 hrs post-dose; assay type: ADME, organism-based, Canis lupus familiaris; set-up: time lower 0.08 hrs, dose 3 mg/kg, time upper 24 hrs, route po; settings: in vivo
[11] = Oral bioavailability in Beagle dog at 3 mg/kg administered via gavage measured for 0.08 to 24 hrs post-dose; assay type: ADME, organism-based, Canis lupus familiaris; settings: in vivo, time 0.08-24 hrs
[12] = AUC (0 to infinity) in overnight fasted dog at 100 mg/kg, po measured upto 24 hrs; assay type: ADME, organism-based, Canis lupus familiaris; set-up: dose 100 mg/kg, time < 24 hrs, route po; settings: in vivo
[13] = Prodrug conversion in overnight fasted dog assessed as AUC (0 to last) of parent nucleoside compound at 100 mg/kg, po measured upto 24 hrs; assay type: ADME, organism-based, Canis lupus familiaris; set-up: dose 100 mg/kg, time < 24 hrs, route po; settings: in vivo
[14] = AUC (0 to infinity) in cynomolgus monkey at 30 mg/kg, po; assay type: ADME, organism-based, Macaca fascicularis; set-up: time infinity, dose 30 mg/kg, route po; settings: in vivo
[15] = Prodrug conversion in cynomolgus monkey assessed as AUC (0 to last) of parent nucleoside compound at 30 mg/kg, po; assay type: ADME, organism-based, Macaca fascicularis; set-up: time 0 - last, dose 30 mg/kg, route po; settings: in vivo
[16] = Prodrug conversion in cynomolgus monkey lung assessed as triphosphate metabolite formation at 30 mg/kg, po measured after 24 hrs; assay type: ADME, organism-based, Macaca fascicularis; settings: in vivo
[17] = test system: Ebolavirus; assay: Antiviral activity against Ebola infected in human macrophages assessed as reduction in viral replication; assay type: functional, organism-based; settings: Orthoebolavirus, Macrophage
[18] = test system: Ebolavirus; assay: Antiviral activity against Ebola infected in human HeLa cells assessed as reduction in viral replication; assay type: functional, organism-based; settings: Orthoebolavirus
[19] = test system: Marburgvirus; assay: Antiviral activity against MARV Rec. Bat371-GFP infected in human Huh-7 cells assessed as reduction in viral replication incubated for 48 to 144 hrs by fluorescence based assay; assay type: functional, organism-based; settings: Orthomarburgvirus
[20] = test system: Nipah virus; assay: Antiviral activity against Nipah M1999 infected in human HeLa cells assessed as reduction in viral replication incubated for 48 to 144 hrs by reporter virus assay; assay type: functional, organism-based; settings: Henipavirus nipahense
[21] = test system: Nipah virus; assay: Antiviral activity against Nipah B2004 infected in human NCI-H358 cells assessed as reduction in viral replication incubated for 48 to 144 hrs by reporter virus assay; assay type: functional, organism-based; settings: Henipavirus nipahense
[22] = test system: Measles morbillivirus; assay: Antiviral activity against Measles Rec.rMVEZGFP(3) infected in human HeLa cells assessed as reduction in viral replication incubated for 48 to 144 hrs by fluorescence based assay; assay type: functional, organism-based
[23] = test system: Measles morbillivirus; assay: Antiviral activity against Measles virus infected in HMVEC cells assessed as reduction in viral replication; assay type: functional, organism-based
[24] = test system: SARS-CoV; assay: Antiviral activity against SARS-CoV infected in HAE cells assessed as reduction in viral replication at MOI of 0.5 preincubated for 3 hrs followed by virus removal measured after 48 hrs by Hoechst 33258 staining based assay; assay type: functional, organism-based; settings: Severe acute respiratory syndrome-related coronavirus
[25] = test system: SARS-CoV-2; assay: Antiviral activity against SARS-CoV-2 infected in human A549 cells expressing hACE2 assessed as reduction in viral replication at MOI of 0.025 incubated for 48 hrs by luciferase based assay; assay type: functional, organism-based; settings: Severe acute respiratory syndrome coronavirus 2, A549, 48 h
[26] = test system: SARS-CoV-2; assay: Antiviral activity against SARS-CoV-2 infected in human Huh-7 cells assessed as reduction in virus-induced cytopathic effect at MOI of 0.0037 measured after 4 days by MTS assay; assay type: functional, organism-based; settings: Severe acute respiratory syndrome coronavirus 2, Huh-7, 96 h
[27] = test system: SARS-CoV-2; assay: Antiviral activity against SARS-CoV-2 infected in African green monkey Vero E6 cells assessed as reduction in viral replication; assay type: functional, organism-based; settings: Severe acute respiratory syndrome coronavirus 2, Vero C1008
[28] = test system: SARS-CoV-2; assay: Antiviral activity against SARS-CoV-2 infected in human Caco-2 cells assessed as reduction in viral replication at MOI of 0.01 measured after 72 hrs by qRT-PCR analysis; assay type: functional, organism-based; settings: Severe acute respiratory syndrome coronavirus 2, Caco-2, 72 h
[29] = test system: SARS-CoV-2; assay: Antiviral activity against SARS-CoV-2 infected in human Calu-3 cells assessed as reduction in viral replication at MOI of 0.01 measured after 72 hrs by qRT-PCR analysis; assay type: functional, organism-based; settings: Severe acute respiratory syndrome coronavirus 2, Calu-3, 72 h
[30] = test system: SARS-CoV-2; assay: Antiviral activity against SARS-CoV-2 infected in human Calu-3 2B4 cells assessed as reduction in viral replication at MOI of 0.01 preincubated for 2 hrs followed by viral infection for 30 mins and subsequent virus removal and addition of medium containing compound measured after 72 hrs by RT-qPCR analysis; assay type: functional, organism-based; settings: Severe acute respiratory syndrome coronavirus 2, Calu-3 2B4
[31] = test system: SARS-CoV-2; assay: Antiviral activity against SARS-CoV-2 infected in human PSC-derived lung epithelial cells assessed as reduction in viral replication; assay type: functional, organism-based; settings: Severe acute respiratory syndrome coronavirus 2, Epithelial cell
[32] = test system: Middle East respiratory syndrome-related coronavirus; assay: Antiviral activity against MERS-CoV infected in HAE cells assessed as reduction in viral replication at MOI of 0.5 incubated for 3 hrs followed by virus removal measured after 48 hrs by Hoechst 33258 staining based assay; assay type: functional, organism-based
[33] = test system: Hepatitis C virus; assay: Antiviral activity against HCV infected in human Huh-7 cells expressing Ces1 assessed as reduction in viral replication by measuring monophosphate prodrug metabolite; assay type: functional, organism-based, Hepacivirus hominis

Q: For `CC(C)OC(=O)[C@H](C)N[P@](=O)(OC[C@H]1O[C@@H](n2ccc(=O)[nH]c2=O)[C@@](C)(F)[C@@H]1O)Oc1ccccc1`, which EC50 [1] is on record?
A: > 50000 nM

Q: What about the EC50 [2] of the same compound?
A: 420 nM

Q: What about the AUC(0-inf) [3] of the same compound?
A: 0.16 µM·h

Q: And the AUClast [4]?
A: 0.12 µM·h

Q: And the AUC(0-inf) [5]?
A: 0.78 µM·h

Q: And the AUClast [6]?
A: 27 µM·h

Q: With `CC(C)OC(=O)[C@H](C)N[P@](=O)(OC[C@H]1O[C@@](C#N)(c2cnc3c(N)ncnn23)[C@](C)(O)[C@@H]1OC(=O)C(C)C)Oc1ccccc1` as the compound, how does the EC50 [1] read?
A: > 89000 nM

Q: And the EC50 [2]?
A: 460 nM

Q: With `CCOC(=O)[C@H](C)N[P@@]1(=O)OC[C@H]2O[C@@H](n3cnc4c(OCC)nc(N)nc43)[C@](C)(F)[C@@H]2O1` as the compound, how does the half-life [7] read?
A: 18 min

Q: What about the Vd [8] of the same compound?
A: 0.5 L/kg

Q: And the AUC(0-inf) [9]?
A: 0.61 µM·h

Q: What about the AUC(0-inf) [10] of the same compound?
A: 1.6 µM·h

Q: And the bioavailability [11]?
A: 44%

Q: What does the source list for `COC(=O)[C@H](C)NP(=O)(OC[C@@H]1C=C[C@H](n2cc(C)c(=O)[nH]c2=O)O1)Oc1ccc(Br)cc1` (stereo not given in full)?
A: AUC(0-inf) [12]: 23.1 µM·h; AUClast [13]: 262 µM·h

Q: What does the source list for `CNc1nc(N)nc2c1ncn2[C@@H]1O[C@H](COP(=O)(N[C@@H](C)C(=O)OC(C)C)Oc2ccccc2)[C@@H](O)[C@@]1(C)F` (stereo not given in full) [BEMNIFOSBUVIR]?
A: EC50 [1]: 69000 nM; EC50 [2]: 13 nM

Q: Which AUC(0-inf) [14] does the source give for `CNc1nc(N)nc2c1ncn2[C@@H]1O[C@H](CO[P@@](=O)(N[C@@H](C)C(=O)OC(C)C)Oc2ccccc2)[C@@H](O)[C@@]1(C)F` [BEMNIFOSBUVIR] here?
A: 0.44 µM·h

Q: And the AUClast [15]?
A: 1.56 µM·h

Q: And the Drug metabolism [16]?
A: 0.14 nmol/g

Q: For `COc1nc(N)nc2c1ncn2[C@@H]1O[C@H](COP(=O)(N[C@@H](C)C(=O)OCC(C)(C)C)Oc2cccc3ccccc23)[C@@H](O)[C@@]1(C)O` (stereo not given in full) [BMS-986094], which EC50 [1] is on record?
A: 3500 nM

Q: What about the EC50 [2] of the same compound?
A: 35 nM

Q: And the AUC(0-inf) [14]?
A: 0.026 µM·h

Q: Which EC50 [17] does the source give for `N#C[C@@]1(c2ccc3c(N)ncnn23)O[C@H](CO)[C@@H](O)[C@H]1O` [GS-441524] here?
A: > 20000 nM

Q: What about the EC50 [18] of the same compound?
A: > 20000 nM

Q: And the EC50 [19]?
A: 1900 nM

Q: And the EC50 [20]?
A: 2120 nM

Q: And the EC50 [21]?
A: 2460 nM

Q: And the EC50 [22]?
A: 1000 nM

Q: And the EC50 [23]?
A: 770 nM

Q: What about the EC50 [24] of the same compound?
A: 180 nM

Q: What about the EC50 [25] of the same compound?
A: 869 nM

Q: And the EC50 [26]?
A: 1100 nM

Q: What about the EC50 [27] of the same compound?
A: 470 nM

Q: And the EC50 [28]?
A: 80 nM

Q: And the EC50 [29]?
A: 250 nM

Q: What about the EC50 [30] of the same compound?
A: 620 nM

Q: And the EC50 [31]?
A: 740 nM

Q: What about the EC50 [32] of the same compound?
A: 860 nM

Q: With `CC(C)OC(=O)[C@@H](C)N[P@@](=O)(OC[C@H]1O[C@@H](n2ccc(=O)[nH]c2=O)[C@](C)(Cl)[C@@H]1O)Oc1ccccc1` [UPRIFOSBUVIR] as the compound, how does the EC50 [33] read?
A: 320 nM
